Laboratory results: patent EP4755886A1 (Chengdu Chipscreen Pharmaceutical Ltd., priority 2023, dated 2025)

Test system: gene-editing MTAP-/- human colon cancer cell strain HCT116
Experiment: Efficacy in MTAP-/- HCT116 subcutaneous xenograft mouse model
Format: in vivo, Balb/c nude mice
Settings: 10 mg/kg, PO, qd, 28 days
Description: The blank group contained 40% PEG400 normal saline with 2% DMSO. […] The test substance was intragastrically administered at 10 mg/kg once daily, and MRTX1719 was intragastrically administered at 50 mg/kg once daily. Model control: The vehicle (2% DMSO + 40% PEG400 + 58% normal saline) was intragastrically administered at a dose of 10 mL/kg once daily. Administration was performed for 28 days in total. […] The mice were euthanized on the day when the last administration was completed. […] In the formula, VTt represents the tumor volume of the treatment group at each measurement, and VT0 represents the tumor volume measured when the treatment group is grouped; VCt represents the tumor volume of the vehicle group at each measurement (same as VTt), and VC0 represents the tumor volume measured when the vehicle group is grouped. Data were analyzed using GraphPad Prism 9.0 software and expressed as Mean ± SEM (standard error). Pairwise comparisons between each administration group and the control group were performed using one-way analysis of variance (ANOVA). Variance homogeneity was determined using the Brown-Forsythe method, and variance heterogeneity was determined using the Dunnett's T3 method. Table 7. Efficacy evaluation in HCT116 subcutaneous xenograft mouse model

SMILES: CN(C(=O)c1cc2c(cc1F)nc(N)c1cnn(C)c12)[C@@H]1COc2cc(C#Cc3cnn(C)c3)ccc21 [Compound 5A, (S)-4-amino-7-fluoro-N,1-dimethyl-N-(6-((1-methyl-1H-pyrazol-4-yl)ethynyl)-2,3-dihydrobenzofuran-3-yl)-1H-pyrazolo[4,3-c]quinoline-8-carboxamide]
- TGI: 82.25%
- Tumor volume: 378.72 mm^3
